In experiment [1] the target is T1, UapA (Aspergillus nidulans, UniProt Q07307).
T1 construct: full-length UapA, C-terminal GFP-type functional tag kept, gpdA promoter, expressed in A. nidulans Δ7 strain lacking 7 major nucleobase transporters; homodimer
Kind of experiment: [3H]-xanthine uptake in germinating conidiospores, initial rates. The class given is cell-based. Particulars: pH 6.8, 37°C; H+ symport; labelled compound; read-out: Km app.

Experiment [2] concerns the target T1, UapA. Kind of experiment: competition of [3H]-xanthine uptake in germinating conidiospores. It is filed as cell-based.

The values that follow come from publication PMC9434233, “Transmembrane helices 5 and 12 control transport dynamics, substrate affinity, and specificity in the elevator-type UapA transporter” (Genetics, 2022).

For `O=c1[nH]c(=O)c2[nH]cnc2[nH]1` [XA, xanthine], the Km at UapA [1] worked out at 6 µM.

On UapA [2], `O=c1[nH]c(=O)c2c[nH]nc2[nH]1` [OX, oxypurinol] registered an inhibition constant (Ki) of 103 µM.

A word on the Km: it is the concentration of substrate that gives half-maximal velocity. The term Ki denotes the dissociation constant of the complex between target and ligand, obtained from inhibition or displacement. Higher therefore signals weaker binding.
